Data as given in the NIST ThermoML archive (doi:10.1016/j.jct.2006.09.001).
Where “and” joins values, the source holds several entries; their conditions need not be identical. Identical values can stand only once. ± gives the expanded uncertainty stated by the source.

Key:
[1] = Molar enthalpy of transition or fusion; details: Crystal; DSC

OC[c-]1cccc1.[Fe+2].c1cc[cH-]c1 [(hydroxymethyl)ferrocene]
Details | Normal melting temperature [°C] | vapor or sublimation pressure
313.3 K, Crystal | – | 0.00011 ± 1e-05 kPa
316.7 K, Crystal | – | 0.00015 ± 2e-05 kPa
320.4 K, Crystal | – | 0.00025 ± 3e-05 kPa
323.3 K, Crystal | – | 0.00036 ± 4e-05 kPa
327.3 K, Crystal | – | 0.00056 ± 6e-05 kPa
330.4 K, Crystal | – | 0.00079 ± 8e-05 kPa and 0.00078 ± 8e-05 kPa
333.7 K, Crystal | – | 0.00116 ± 0.00012 kPa
333.8 K, Crystal | – | 0.00111 ± 0.00011 kPa
335.9 K, Crystal | – | 0.0015 ± 0.00015 kPa
336.2 K, Crystal | – | 0.00149 ± 0.00015 kPa
339.8 K, Crystal | – | 0.00218 ± 0.00022 kPa
341.1 K, Crystal | – | 0.00254 ± 0.00026 kPa
342 K, Crystal | – | 0.0029 ± 0.0003 kPa
343.3 K, Crystal | – | 0.00329 ± 0.00034 kPa
346 K, Crystal | – | 0.00416 ± 0.00042 kPa
347.3 K, Crystal | – | 0.00468 ± 0.00048 kPa
347.4 K, Crystal | – | 0.00492 ± 0.0005 kPa
353.2 K, Liquid | – | 0.00788 ± 0.0008 kPa
355.2 K, Liquid | – | 0.00938 ± 0.00095 kPa
357.3 K, Liquid | – | 0.0104 ± 0.001 kPa
358.9 K, Liquid | – | 0.01181 ± 0.0012 kPa
359.6 K, Liquid | – | 0.01286 ± 0.0013 kPa
361.6 K, Liquid | – | 0.01452 ± 0.0015 kPa
363.4 K, Liquid | – | 0.01668 ± 0.0017 kPa
364.7 K, Liquid | – | 0.01879 ± 0.0019 kPa
366.1 K, Liquid | – | 0.02236 ± 0.0023 kPa
366.5 K, Liquid | – | 0.02159 ± 0.0022 kPa
368.9 K, Liquid | – | 0.02708 ± 0.0027 kPa
369 K, Liquid | – | 0.02499 ± 0.0025 kPa
370.5 K, Liquid | – | 0.02709 ± 0.0027 kPa
371.8 K, Liquid | – | 0.03178 ± 0.0032 kPa
372.5 K, Liquid | – | 0.03208 ± 0.0033 kPa
374 K, Liquid | – | 0.03745 ± 0.0038 kPa
375.6 K, Liquid | – | 0.03813 ± 0.0039 kPa
377 K, Liquid | – | 0.04507 ± 0.0046 kPa
379.7 K, Liquid | – | 0.05509 ± 0.0056 kPa
383.7 K, Liquid | – | 0.06949 ± 0.007 kPa
385 K, Liquid | – | 0.07524 ± 0.0076 kPa
386.8 K, Liquid | – | 0.08377 ± 0.0084 kPa
389.6 K, Liquid | – | 0.09595 ± 0.0097 kPa
393.7 K, Liquid | – | 0.1301 ± 0.013 kPa
Crystal, DTA | 79.1 ± 0.7 | –

Details | Molar enthalpy of transition or fusion [kJ/mol]
[1] | 23.7 ± 0.8
